Measurements published in publication PMC11277992, “New Zosteropenillines and Pallidopenillines from the Seagrass-Derived Fungus Penicillium yezoense KMM 4679” (Marine Drugs, 2024).
Where two headings read alike, the source gives them in different places.

Tests used:
[1] = test system: autophagy-related cargo protein p62; design: method as in PMID 28218691; conditions: PC-3 cells; cited from earlier work
[2] = test system: LPS-stimulated RAW264.7 murine macrophages; design: method as in PMID 28218691; conditions: cited from earlier work
[3] = test system: CoCl2-treated HEK-293 cells; experiment: Cytoprotective activity, CoCl2-mimic hypoxia, cell viability (MTT); format: cell-based, human; conditions: CoCl2 at 500 µM for 24 h
Method: The HEK-293 cells were exposed to cobalt chloride (II) at a 500 µM for 1 h and then the compounds were added. After 24 h, the viability of the cells was measured via MTT assay as described earlier.

[4] = test system: CoCl2-treated HEK-293 cells; experiment: Lipid peroxidation level (MitoCLox) in CoCl2-treated cells; format: cell-based, human; conditions: toxic effect of CoCl2; MitoCLox fluorescence dye
Method: The fluorescence probe MitoCLox (Lumiprobe, Moscow, Russia) was used for the detection of the lipid peroxidation level in CoCl2-treated cells. It was added in the cells for 1 h at a concentration of 200 nM. After 1 h, the cells were washed with PBS and fluorescence was measured in ratiometric mode with λem = 520/590 nm using a PHERAStar FS plate reader (BMG Labtech, Offenburg, Germany). The data were processed with MARS Data Analysis v. 3.01R2 (BMG Labtech, Offenburg, Germany) and calculated as a 520/590 ratio.

[5] = test system: breast MCF-7 cancer cells; experiment: Cytotoxic activity (MTT assay); format: cell-based, human; conditions: for Cell Viability, % of Control, MCF-7: 100 µM, 24 h, MTT; for IC50: Homo sapiens
Method: (§1) The influence of compounds 1, 2 and 4–14 on the viability of normal human kidney […] cells, as well as human prostate PC-3, cervical HeLa and breast MCF-7 cancer cells, was measured using the MTT assay after 24 h of treatment.
(§2) PC-3 cells (5 × 10^3 cells/well) and HEK 293 cells (8 × 10^3 cells/well) were seeded in a 96-well plate and incubated overnight. […] Cell viability was then determined by the MTT (3-(4,5-dimethylthiazol-2-yl)-2,5-diphenyltetrazolium bromide) method according to the manufacturer’s instructions (Sigma-Aldrich, St. Louis, MO, USA). The absorbance of the converted formazan was measured using a Multiskan FC microplate photometer (Thermo Scientific, Waltham, MA, USA) at λ = 570 nm. The results are presented as percentages of the control data.

[6] = test system: human prostate PC-3 cancer cells; experiment: Cytotoxic activity (MTT assay); format: cell-based; conditions: for Cell Viability, % of Control, PC-3: 100 µM, 24 h, MTT; for IC50: Homo sapiens
Method: (§3) The human prostate cancer cells PC-3 and CRL-1435 and the human embryonic kidney cells HEK-293 and CRL-1573TM were purchased from the American Type Culture Collection (ATCC; Manassas, VA, USA). PC-3 and HEK-293 cells were cultured in DMEM medium containing 10% fetal bovine serum (Biolot, St. Petersburg, Russia) and 1% penicillin/streptomycin (Biolot, St. Petersburg, Russia) at 37 °C in a humidified atmosphere with 5% (v/v) CO2. The cells were incubated in cultural flasks until sub-confluent (~80%).
as §2

[7] = test system: cervical HeLa cancer cells; experiment: Cytotoxic activity (MTT assay); format: cell-based, human; conditions: for Cell Viability, % of Control, HeLa: 100 µM, MTT; for IC50: Homo sapiens, HeLa
Candida albicans KMM 455 = experiment: Antimicrobial activity, microbial growth in broth (OD620); format: cell-based; conditions: Candida albicans, KMM455; compound at 100 µM; read-out: Inhibition of Microbial Growth, % of Control, C. albicans
Method: (§4) The yeast-like fungus Candida albicans KMM 455 and bacterial strains Staphylococcus aureus ATCC 21027 and Escherichia coli VKPM (B-7935) (Collection of Marine Microorganisms PIBOC FEB RAS) were cultured on solid-medium Mueller–Hinton broth with agar (16.0 g/L) in a Petri dish at 37 °C for 24 h. The assays were performed in 96-well microplates in an appropriate Mueller–Hinton broth. Each well contained 90 µL of a bacterial or yeast-like fungal suspension (10^6 CFU/mL). Then, 10 µL was added of a compound diluted at concentrations from 1.5 µM to 100.0 µM using twofold dilution (DMSO concentration < 1%). Culture plates were incubated overnight at 37 °C, and the OD620 was measured using a Multiskan FC spectrophotometer (Thermo Scientific Inc., Beverly, MA, USA). The antibiotic gentamicin and antifungal agent nitrofungin were used as positive controls at 1 mg/mL; 1% DMSO in PBS served as a negative control. Examination was performed twice and in triplicate. The results were calculated as a percentage of the control data using SigmaPlot 14.0 software.

[8] = test system: Staphylococcus aureus ATCC 21027; experiment: as above; format: cell-based; conditions: ATCC21027, compound at 100 µM, read-out: Inhibition of Microbial Growth, % of Control, S. aureus
Method: as §4

[9] = test system: Escherichia coli VKPM (B-7935); experiment: as above; format: cell-based; conditions: compound at 100 µM, read-out: Inhibition of Microbial Growth, % of Control, E. coli
Method: as §4

[10] = test system: normal human kidney cells; experiment: Cytotoxic activity (MTT assay); format: cell-based; conditions: 100 µM, 24 h
Method: as §1, §3
PC-3 cells (5 × 10^3 cells/well) and HEK 293 cells (8 × 10^3 cells/well) were seeded in a 96-well plate and incubated overnight. Then, compounds were added at concentrations of 1–100 μM and incubated for another 24 h. Cell viability was then determined by the MTT (3-(4,5-dimethylthiazol-2-yl)-2,5-diphenyltetrazolium bromide) method according to the manufacturer’s instructions (Sigma-Aldrich, St. Louis, MO, USA). The absorbance of the converted formazan was measured using a Multiskan FC microplate photometer (Thermo Scientific, Waltham, MA, USA) at λ = 570 nm. The results are presented as percentages of the control data.

MCF-7 cells [11] = experiment: Colony formation (clonogenic) assay; format: cell-based; conditions: Homo sapiens, MCF7, 240 h; 10 days; read-out: half-maximal concentration of the inhibition of MCF-7 colony formation
PC-3 cells [12] = experiment: Colony formation (clonogenic) assay; format: cell-based; conditions: Homo sapiens, PC-3, 240 h; 10 days; read-out: half-maximal concentration of the inhibition of PC-3 colony formation
Method: The influence of compounds on colony formation by PC-3 cells was tested by the clonogenic assay. The concentration of PC-3 cells was 0.33 × 10^3/mL. The cells were incubated for 10 days, and then they were fixed with methanol (25 min), staining with 0.5% solution of crystal violet (25 min) and washing with PBS. The counting of grown colonies was carried out using a BIO-PRINT-Cx4 Edge-Fixed Pad-Container (Vilber, Collegien, France) using Bio-Vision Software user and service manual-v18.01 (Vilber, Collegien, France). The results are presented as colony inhibition in comparison with the control.

MCF-7 cells [13] = experiment: Cell viability after pretreatment with 4-OHT (estrogen receptor inhibitor); format: cell-based, human; conditions: 14 at 75 µM, 4-OHT at 10 µM
Method: (§5) To detect the possible target of 14, we used 4-hydroxytamoxifen (4-OHT) at a concentration of 10 µM as a known inhibitor of estrogen receptors (ERs), and the data are presented in Figure 14.
(§6) Figure 14 The influence of 14 (at a 75 µM) on cell viability in the presence of 4-OHT (at 10 µM). Data are presented as the mean ± SEM. * p-value ≤ 0.05 considered significant.

PC-3 cells [14] = experiment: as above; format: cell-based, human; conditions: 14 at 75 µM, 4-OHT at 10 µM
Method: as §5, §6

HeLa cells [15] = experiment: as above; format: cell-based, human; conditions: 14 at 75 µM, 4-OHT at 10 µM
Method: as §5, §6

MCF-7 cells [16] = experiment: Drug combination study with doxorubicin (MTT); format: cell-based, human; conditions: 24 h
HeLa cells [17] = experiment: Colony formation (clonogenic) assay; format: cell-based; conditions: Homo sapiens, 240 h, 10 days, read-out: half-maximal concentration of the inhibition of HeLa colony formation
HeLa cells [18] = experiment: Migration (scratch) assay; format: cell-based, human; conditions: 24 h
MCF-7 cells [19] = experiment: Migration (scratch) assay; format: cell-based, human; conditions: 24 h
PC-3 cells [20] = experiment: Migration (scratch) assay; format: cell-based, human; conditions: 24 h
Method: Silicone 2-well inserts (Ibidi®, Gräfelfing, Germany) were used for formation of a free cell zone in the PC-3 cells’ monolayer. After removing the insert, the gap between the cells was 500 ± 50 μm. The cells were washed twice with PBS after removing the inserts and staining with (5,6)-carboxyfluorescein succinimidyl ester (CFDA SE) (Lumiprobe, Moscow, Russia) fluorescence dye. Then, cells were treated with compound or culture medium only (vehicle control) for 24 h. Cell migration into the wound area was observed under a fluorescence microscope (MIB-2-FL; LOMO, St. Petersburg, Russia) with objective 10× magnification.

| SMILES | effect on autophagy-related cargo protein p62 [1] | effect on NO levels [2] | Cell Viability, % of Control, MCF-7 [5] | Cell Viability, % of Control, PC-3 [6] | Cell Viability, % of Control, HeLa ([7]; 24 h) | inhibition of growth at 100 µM (Candida albicans KMM 455) [%] | inhibition of growth at 100 µM [8] [%] | inhibition of growth at 100 µM [9] [%] | Cell Viability, % of Control, HEK-298 [10] | also measured |
| --- | --- | --- | --- | --- | --- | --- | --- | --- | --- | --- |
| C[C@H]1CC[C@H]2[C@@H](C=C[C@]3(C)OCCC(=O)[C@H]23)[C@@H]1O [zosteropenilline A] | upregulators |  |  |  |  |  |  |  |  |  |
| C[C@]12C=C[C@H]3C[C@@H](CO)CC[C@@H]3[C@H]1C(=O)CCO2 [zosteropenilline B] |  | downregulate |  |  |  |  |  |  |  |  |
| [Cl-].[Cl-].[Co+2] [CoCl2, cobalt (II) chloride, reference compound] |  |  |  |  |  |  |  |  |  | decrease of the viability of HEK-293 cells [3]: 75%; lipid peroxide levels in HEK-293 cells [4]: significant increase |
| C[C@@]1(O)C=C[C@H]2C[C@@H](CO)CC[C@@H]2[C@H]1C(=O)CCO [Compound 12, zosteropenilline J] |  | downregulate | 82.77 ± 1.36 % of Control | 87.01 ± 2.71 % of Control | 66.70 ± 6.64 % of Control | 6.61 ± 1.12 | 20.3 ± 1.2 | 0 | 87.01 ± 2.71 % of Control |  |
| CC(=O)OCCC(=O)[C@@H]1[C@H]2CC[C@H](C)[C@@H](O)[C@@H]2C=C[C@@]1(C)O [Compound 14, 1-acetylpallidopenilline A] |  |  | 23.71 ± 1.05 % of Control | 45.91 ± 0.67 % of Control | 53.44 ± 2.14 % of Control | 0 | 31.6 ± 7.8 | 0 | 96.92 ± 4.83 % of Control | IC50 (MCF-7 cells [11]): 0.66 µM; IC50 (PC-3 cells [12]): 2.48 ± 0.11 µM; IC50 ([5]; MCF7, 24 h, read-out: half-maximal inhibition of the viability of MCF-7 cells): 72 ± 2.48 µM; IC50 ([5]; MCF7, 48 h, read-out: IC50, MCF-7 cells): 54.7 µM; IC50 ([5]; MCF7, 72 h, read-out: IC50, MCF-7 cells): 41 µM; IC50 ([6]; PC-3, 24 h, read-out: IC50, PC-3 cell viability): 94.2 ± 1.13 µM; IC50 ([6]; PC-3, 48 h, read-out: IC50, PC-3 cells): 63.4 µM; IC50 ([6]; PC-3, 72 h, read-out: IC50, PC-3 cells): 48.5 µM; cytotoxicity of 14 after pretreatment with 4-OHT versus 14 alone (MCF-7 cells [13]): significant decrease in the cytotoxicity; cytotoxicity of 14 after pretreatment with 4-OHT versus 14 alone (PC-3 cells [14]): No significant differences; cytotoxicity of 14 after pretreatment with 4-OHT versus 14 alone (HeLa cells [15]): No significant differences; decrease of MCF-7 cell viability (MCF-7 cells [16]; combination of 14 with doxorubicin at 0.1 µM): 50%; toxicity to MCF-7 cells compared with doxorubicin alone (MCF-7 cells [16]; combination of 14 with doxorubicin at 1 µM): more toxic; IC50 (HeLa cells [17]): 0.96 ± 0.02 µM; migration of HeLa cells (HeLa cells [18]): significantly inhibited; migration of MCF-7 cells (MCF-7 cells [19]): significantly inhibited; IC50 ([7]; 48 h, read-out: IC50, HeLa cells): 82.7 µM; IC50 ([7]; 72 h, read-out: IC50, HeLa cells): 73.2 µM; migration of PC-3 cells (PC-3 cells [20]): did not affect |
| C[C@@]1(O)CC[C@@H]2[C@H]3C(=O)CCO[C@@]3(C)C=C[C@H]2C1 [zosteropenilline C] | upregulators |  |  |  |  |  |  |  |  |  |
| CC1=C[C@H](O)[C@H]2[C@H](O)[C@@H](C)CC[C@@H]2[C@H]1C(=O)CCO [zosteropenilline H] |  | downregulate |  |  |  |  |  |  |  |  |
| C[C@H]1CC[C@@H]2[C@@H](C(=O)CCO)[C@](C)(O)C=C[C@H]2C1 [Compound 11, zosteropenilline G] | upregulators |  | 81.00 ± 2.38 % of Control | 93.97 ± 2.36 % of Control | 34.35 ± 1.90 % of Control | 18.1 ± 2.58 | 16.9 ± 4.12 | 0 | 93.97 ± 2.36 % of Control | IC50 ([7]; 24 h, read-out: IC50, HeLa cell viability): 79.7 µM |
